Results reported in US8642765B2, “Azaindole-indole coupled derivatives, preparation methods and uses thereof” (priority 2007, dated 2014).
Like-named read-outs stand apart in the source and are kept apart here.

Key:
[1] = Dissolution of solid dispersion preparations; type: physicochemical; conditions: 45 minute, 100 ml of 1% sodium dodecyl sulfate solution, 37±0.5° C., 100 r/min
Procedure: Instruments: RCZ-5A capacity medicament dissolve and infiltrate apparatus is made by Tianjin University Precision Instruments Factory. UV1900 UV-Vis spectrophotometer is made by Shanghai Yayan Electronic Science And Technology Co., Ltd.
Dissolution determination methods: According to the third method of XC dissolution assay stated in the appendix of Chinese Pharmacopeia (Edition 2005), the rotation speed was 100 r/min, the temperature was 37±0.5° C., and the dissolution medium was 100 ml of 1% sodium dodecyl sulfate solution degassed ultrasonically. A specimen was withdrawn at 45 minute and immediately filtered through a 0.8 μm water membrane. The filtrate was quantitatively diluted. The absorbance was measured by UV1900, and the dissolution percentage was calculated.

DU145 tumor cells = test: MTT growth inhibition of DU145 cells, 72 h; type: cell-based, human; conditions: for IC50 / IC90: DU145, 72 h, MTT; for growth inhibitory effects on tumor cells (in words): discussion of the MTT assay, DU145
Procedure: DU145 cells were inoculated in RPM11640 medium containing 10% calf serum, incubated at 37° C., 5% CO2 in CO2 incubator, and passaged every 2-3 days. In this experiment, cells were grown in logarithmic growth phase.
In the experiment, the cells at logarithmic growth phase were formulated into suspension, and the viability by trypan blue staining was more than 98%. The suspension was divided into several groups: 1 as blank control group (cell suspension); and 2 as experimental groups (cell suspension plus drugs).
(§1) The drugs were formulated into a stock solution in DMSO, and the concentration of the stock solution was 20 mmol (used within 4 hours). In the experiment, the work solution of the drugs was diluted with RPM11640 medium containing 10% calf serum under aseptic condition, to a final concentration of 80 μM. The drug concentrations were increased by 2 times (1.25-20 μM).
(§2) The DU145 cell in logarithmic growth phase were selected, centrifuged, counted, and formulated into a cell suspension (2.5×10^4/ml) with RPM11640 medium containing 10% calf serum. The cell suspension were inoculated into 96-well plates at a density of 5000 cells/200 μl per well, incubated for 24 hours at 37° C., 5% CO2. According to the above concentration of the drug, the cells were inoculated to 6 groups (including one control group), with 8 wells per group. After incubating for 72 hours, the viability of cells was measured by MTT assay. The absorbance value (A) was measured with detection wavelength at 540 nm, reference wavelength at 630 nm. The inhibitory rate (I) was calculated by the following equation, where T was the absorbance value of the experimental groups, and C was the absorbance value of the blank control group: I=(1−T/C)×100%
(§3) The regression equation was calculated by the concentration-inhibitory rate curve, to obtain 50% and 90% inhibition concentration (IC50 and IC90, μM).

[2] = Safety profile (stated in the discussion, no method described); conditions: discussion of Example 2; no data shown
[3] = Solubility assay in solvents; type: physicochemical; conditions: for solubility in Acetone / solubility in deionized water / solubility in ethanol / solubility in methanol / solubility in petroleum ether (boiling range: 60~90° C.) / solubility in trichlormethane: 5 mg in 2 ml solvent, room temperature (20° C.); for change of lipid solubility / change of water solubility: 129 relative to 91, 91 relative to indirubin
Procedure: Testing Methods: 5 mg of the compound no. 129 and 91 were respectively added into 2 ml solvent at room temperature (20° C.), and stirred to dissolve.

[4] = test system: human leukemia cell line CEM; test: MTT growth inhibition of CEM cells; type: cell-based; conditions: read-out: IC50 (μM) Tumor cells CEM
Procedure: as §1, §2, §3
(§4) 1. Tumor Cells: human hepatoma cell lines 7701 QGY and HepG-2, human lung adenocarcinoma cell line A549, human chronic myelocytic leukemia cell line K562, human leukemia cell line CEM and mouse melanoma cell line K111.
(§5) 2. Using the methods described in example 2, the biological activity of a portion of newly synthesized 5- or 7-azaindirubin derivatives and 5- or 7-azaisoindigo derivatives (20 compounds) for inhibiting various tumor cells growth were determined.

[5] = test system: human chronic myelocytic leukemia cell line K562; test: MTT growth inhibition of K562 cells; type: cell-based; conditions: read-out: IC50 (μM) Tumor cells K562
Procedure: as §1, §2, §3, §4, §5

[6] = test system: mouse melanoma cell line K111; test: MTT growth inhibition of K111 cells; type: cell-based; conditions: Klll, read-out: IC50 (μM) Tumor cells Klll
Procedure: as §1, §2, §3, §4, §5

[7] = test system: human hepatoma cell line HepG-2; test: MTT growth inhibition of HepG-2 cells; type: cell-based; conditions: HepG-2, MTT, read-out: IC50 (μM) Tumor cells HepG-2
Procedure: as §1, §2, §3, §4, §5

[8] = test system: human hepatoma cell line 7701 QGY; test: MTT growth inhibition of 7701 QGY cells; type: cell-based; conditions: read-out: IC50 (μM) Tumor cells 7701 QGY
Procedure: as §1, §2, §3, §4, §5

[9] = test system: human lung adenocarcinoma cell line A549; test: MTT growth inhibition of A549 cells; type: cell-based; conditions: read-out: IC50 (μM) Tumor cells A549
Procedure: as §1, §2, §3, §4, §5

Cyclin D1 = test: Western blot of Cyclin D1 in DU145 cells; type: cell-based, human; conditions: DU145, treated for 24 hours, FIG. 3
Excerpt: (§6) Reagents: The tested compounds were the same as example 2. Unless otherwise indicated, other chemical reagents were purchased from Sigma Chemical Company (USA). Polyacrylamide gel used in protein electrophoresis, SDS, electrophoresis buffer, transfer buffer protein, nitrocellulose membrane were purchased from American Bio-Rad Life Science Company. Western blotting detection kits and films were purchased from American GE Company. Phospho-CDK2^Thr160 antibody, endogenous cyclin-dependent inhibitor p27 antibody, CyclinD1 and β-Actin antibody were purchased from American Cell Signaling Inc., DAKO and Santa Cruz Biochemical Technology Company.
(§7) Tumor cells and methods for cell culture were the same as example 2.
(§8) Phospho-Cdc2, p27, and Cyclin D1 were Detected by Western Blot: The human prostate cancer cell lines DU145 at logarithmic growth phase were treated with compounds No. 124 and No. 126 (concentration is shown in FIG. 3) for 24 hours. The cells were harvested and washed. Total cellular proteins were extracted and quantified as described previously^[14]. 50 μg of protein was separated on a SDS-PAGE, electro-transferred to nitrocellulose filters. Western blot were performed using specific antibodies against Phospho-CDK2, endogenous cyclin-dependent inhibitor p27 and CyclinD1, with β-Actin antibody as an internal standard. The result was recorded by ECL films.

[10] = test system: endogenous cyclin-dependent inhibitor p27; test: Western blot of p27 in DU145 cells; type: cell-based, human; conditions: DU145, treated for 24 hours, FIG. 3
Excerpt: as §6, §7, §8

phospho-CDK2^Thr160 = test: Western blot of phospho-CDK2 in DU145 cells; type: cell-based, human; conditions: DU145, treated for 24 hours, FIG. 3
Excerpt: as §6, §7, §8

[11] = Homo sapiens, DU-145, 72 h, Table 5
[12] = Homo sapiens, DU-145, 72 h, Table 6

Row | Compound | IC50 [4] [µM] | IC50 [5] [µM] | IC50 [6] [µM] | IC50 [7] [µM] | IC50 [8] [µM] | IC50 (DU145 tumor cells; Table 6) [µM] | IC90 (DU145 tumor cells; Table 6) [µM] | IC50 [9] [µM] | further results
1 | O=C1C(=C2C(=O)N(Cc3ccccc3)c3ccncc32)Nc2ccc(Br)cc21 [Compound 18] | – | – | – | – | – | – | – | – | Dissolution percentages (%) [1]: 4%; IC50 (DU145 tumor cells; Table 5): 6.6 µM; IC90 (DU145 tumor cells; Table 5): 23.5 µM
2 | CC(C)N1C(=O)C(=C2Nc3ccc(Br)cc3C2=NO)c2cnccc21 [Compound 30] | – | – | – | – | – | – | – | – | safety profile [2]: good safety profile; IC50 (DU145 tumor cells; Table 5): 3.3 µM; IC90 (DU145 tumor cells; Table 5): 7 µM; growth inhibitory effects on tumor cells (in words) (DU145 tumor cells): relatively significant growth inhibitory effects
3 | CCN1C(=O)/C(=C2\Nc3ccccc3\C2=N/O)c2ccccc21 [Compound 91, 1-ethyl-indirubin-3′-oxime, reference compound] | – | – | – | – | – | – | – | – | solubility in Acetone [3]: easily soluble; solubility in deionized water [3]: insoluble; solubility in ethanol [3]: dissoluble; solubility in methanol [3]: slightly soluble; solubility in petroleum ether (boiling range: 60~90° C.) [3]: slightly soluble; solubility in trichlormethane [3]: easily soluble; change of lipid solubility [3]: increased; change of water solubility [3]: decreased; IC50 (DU145 tumor cells; [11]): 4.2 µM; IC90 (DU145 tumor cells; [11]): 21.8 µM; IC50 (DU145 tumor cells; [12]): 4.1 µM; IC90 (DU145 tumor cells; [12]): 22 µM
4 | CN1C(=O)C(=C2Nc3ccc(Cl)cc3C2=NO)c2cccnc21 [Compound 116] | 5.6 | 8.2 | 6.3 | 20.5 | 11.1 | 6.9 | 16 | 12.5 | growth inhibitory effects on tumor cells (in words) (DU145 tumor cells): relatively significant growth inhibitory effects
5 | CCN1C(=O)C(=C2Nc3ccc(Br)cc3C2=NO)c2cccnc21 [Compound 119] | 9 | 7.9 | 8.1 | 8.1 | 13.5 | 4 | 12 | 8.5 | –
6 | CC(C)N1C(=O)C(=C2Nc3ccc(Br)cc3C2=NO)c2cccnc21 [Compound 121] | 11.3 | 11.5 | 6 | 16 | 14.9 | 3.1 | 29 | 18.1 | safety profile [2]: good safety profile; growth inhibitory effects on tumor cells (in words) (DU145 tumor cells): relatively significant growth inhibitory effects
7 | CCCCN1C(=O)C(=C2Nc3ccc(Cl)cc3C2=NO)c2cccnc21 [Compound 124] | – | – | – | – | – | 1.8 | 12 | – | safety profile [2]: good safety profile; protein expression of cyclin D1 (Cyclin D1): significantly decreased; expression of endogenous cyclin-dependent inhibitor p27 [10]: significantly increased; growth inhibitory effects on tumor cells (in words) (DU145 tumor cells): relatively significant growth inhibitory effects; level of CDK2 activity (phosphorylation) (phospho-CDK2^Thr160): decreased in a dose-dependent manner
8 | O=C1C(=C2Nc3ccc(Cl)cc3C2=NO)c2cccnc2N1Cc1ccccc1 [Compound 126] | 8.1 | 5.1 | 14.2 | 16.3 | 11.2 | 7.1 | 19 | 9.6 | protein expression of cyclin D1 (Cyclin D1): significantly decreased; expression of endogenous cyclin-dependent inhibitor p27 [10]: significantly increased; level of CDK2 activity (phosphorylation) (phospho-CDK2^Thr160): decreased in a dose-dependent manner
9 | CN1C(=O)C(=C2Nc3ccccc3C2=NO)c2cccnc21 [Compound 128] | 10.5 | 7.7 | 3.6 | 12.6 | 7.6 | 2.7 | 7.1 | 10 | –
10 | CCN1C(=O)/C(=C2\Nc3ccccc3\C2=N/O)c2cccnc21 [Compound 129] | – | – | – | – | – | – | – | – | solubility in Acetone [3]: slightly soluble; solubility in deionized water [3]: slightly soluble; solubility in ethanol [3]: slightly soluble; solubility in methanol [3]: soluble; solubility in petroleum ether (boiling range: 60~90° C.) [3]: insoluble; solubility in trichlormethane [3]: slightly soluble; change of lipid solubility [3]: decreased; change of water solubility [3]: increased; IC50 ([4]; Homo sapiens, CCRF-CEM): 7 µM; IC50 ([5]; Homo sapiens): 3.4 µM; IC50 ([6]; Mus musculus): 4.2 µM; IC50 ([7]; Homo sapiens, HepG2): 13 µM; IC50 ([8]; Homo sapiens): 7.4 µM; IC50 (DU145 tumor cells; [12]): 3.8 µM; IC90 (DU145 tumor cells; [12]): 12 µM; IC50 ([9]; Homo sapiens): 14.1 µM
11 | CN1C(=O)C(=C2C(=O)Nc3ccc(F)cc32)c2cccnc21 [Compound 154] | 9.8 | 19 | 12 | 29.3 | 36 | 43 | > 100 | 12.4 | –
12 | CC(=O)OCC1OC(N2C(=O)C(=C3C(=O)Nc4ccccc43)c3cc(C)cnc32)C(OC(C)=O)C1OC(C)=O (centres unmarked) [Compound 158] | 12 | 5.8 | 8.3 | 18 | 44 | 10.5 | 49 | 22.3 | –
13 | CCN1C(=O)C(=C2C(=O)N(CC)c3ncccc32)c2cc(Br)ccc21 [Compound 160] | 10.8 | 10.2 | 15 | 31.1 | 25.4 | 14 | 61 | 29.1 | –
14 | CC(C)N1C(=O)C(=C2C(=O)Nc3ccccc32)c2cccnc21 [Compound 164, 1-isopropyl-7-azaisoindigo] | 12.7 | 18.6 | 9.1 | 29 | 33.1 | 9.05 | 19 | 23.3 | –
15 | CCCCN1C(=O)C(=C2C(=O)Nc3ccc(Br)cc32)c2cccnc21 [Compound 170] | 8.5 | 10.3 | 18.5 | 25 | 28 | 15 | 90 | 19.5 | –
